The record followed here is ChEMBL document CHEMBL1201862, “PubChem BioAssay data set” (2004).

Molecules are shown by their SMILES.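 Briefly, cells in 96-well plates were exposed to five compound concentrations for 48 h, and endpoints were estimated by linear interpolation. Here, GI50 denotes the concentration required for 50% inhibition of growth.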 Calls of active or inactive are those of the source. Cut-off read from the data, not from the text of the source: active = GI50 up to about 1.1 µM and inactive = higher.

Among the test systems are OVCAR-8; SF-268; HOP-18; SF-539; SK-MEL-2; U-251; HT-29; M14; DMS-114; EKVX; HCT-116; HCT-15; TK-10; KM12; A549; UACC-62; MCF7; PC-3; MDA-MB-231.
Holding throughout (test): inhibition of tumour cell growth, NCI panel, 48 h

Take `Cc1ccc(SCC(=O)C2=C(O)CCCC2=O)cc1`: the GI50 with OVCAR-8, in the assay on SF-268, in the assay with HOP-18, in the assay with SF-539, in the assay on SK-MEL-2 and in the assay on U-251 was > 100 µM (inactive) throughout. In addition, the GI50 in the assay on HT-29 was > 100 µM (inactive); in the assay with M14, > 100 µM (inactive); in the assay with DMS-114, > 100 µM (inactive); in the assay with EKVX it was > 100 µM (inactive); in the assay with HCT-116 it was > 100 µM (inactive); in the assay with HCT-15 it was greater than 100 µM. Moreover, the GI50 in the assay with TK-10, with KM12, in the assay with A549 and in the assay with UACC-62 was > 100 µM (inactive) each time.
Turning to `O=C1OC2(c3ccccc3Oc3ccccc32)c2ccccc21`, the GI50 in the assay on OVCAR-8, with SF-268, with HOP-18, with SF-539, in the assay on SK-MEL-2 and with U-251 was > 100 µM (inactive) each time. The GI50 in the assay with HT-29 was > 100 µM (inactive); in the assay on M14, > 100 µM (inactive); in the assay on DMS-114 it was > 100 µM (inactive); in the assay with EKVX, > 100 µM (inactive); in the assay on HCT-116, > 100 µM (inactive); with HCT-15, greater than 100 µM. The GI50 in the assay with TK-10, in the assay with KM12, in the assay on A549 and in the assay with UACC-62 was > 100 µM (inactive) throughout.
On to `CC(=O)O[C@H]1CSC[C@@H](OC(C)=O)C1[N+](=O)[O-]` (stereo not given in full), for which the GI50 is 45.5 µM (inactive) in the assay on OVCAR-8; > 100 µM (inactive) with SF-268; 50.7 µM (inactive) in the assay with HOP-18; 43.8 µM (inactive) in the assay on SF-539; 27.3 µM (inactive) in the assay on SK-MEL-2; > 100 µM (inactive) with U-251. Also, the GI50 was 48.2 µM (inactive) in the assay on HT-29; 29.6 µM (inactive) in the assay on M14; 39.1 µM (inactive) in the assay with DMS-114; > 100 µM (inactive) in the assay with EKVX; 95.3 µM (inactive) in the assay on HCT-116; 30.1 µM in the assay on HCT-15. Further, the GI50 in the assay with TK-10 was > 100 µM (inactive); in the assay on KM12, 63 µM (inactive); with A549 it was > 100 µM (inactive); in the assay with UACC-62, 65.8 µM (inactive).
For the compound `CN(/N=C/c1cccc2cccnc12)c1c([N+](=O)[O-])cc([N+](=O)[O-])cc1[N+](=O)[O-]`, the GI50 in the assay on OVCAR-8, in the assay on SF-268, in the assay on HOP-18, in the assay on SF-539, in the assay with SK-MEL-2 and with U-251 was > 100 µM (inactive) each time. Besides, the GI50 in the assay with HT-29 is 69.2 µM (inactive); with M14, > 100 µM (inactive); in the assay on DMS-114 it was 6.52 µM (inactive); in the assay on EKVX it was > 100 µM (inactive); in the assay with HCT-116, > 100 µM (inactive); with HCT-15, 13.2 µM. The GI50 was > 100 µM (inactive) in the assay on TK-10, 25.2 µM (inactive) with KM12, 46.8 µM (inactive) in the assay on A549 and > 100 µM (inactive) with UACC-62.
`CN(C)c1n/c(=N/c2ncn[nH]2)ss1`: the GI50 in the assay on OVCAR-8, in the assay on SF-268, with HOP-18, in the assay with SF-539, in the assay with SK-MEL-2 and with U-251 was > 100 µM (inactive) in each case. Further, the GI50 is > 100 µM (inactive) in the assay on HT-29; > 100 µM (inactive) in the assay with M14; > 100 µM (inactive) with DMS-114; > 100 µM (inactive) in the assay with EKVX; > 100 µM (inactive) in the assay on HCT-116; greater than 100 µM with HCT-15. Also, the GI50 in the assay with TK-10, with KM12, in the assay with A549 and with UACC-62 was > 100 µM (inactive) in each case.
Take `COc1c(C)c(O)c2c(=O)cc(-c3ccccc3)oc2c1C`: the GI50 in the assay with OVCAR-8, with SF-268, with HOP-18, with SF-539, in the assay with SK-MEL-2 and with U-251 was > 100 µM (inactive) throughout. The GI50 with HT-29 is > 100 µM (inactive); in the assay with M14 it was > 100 µM (inactive); with DMS-114, > 100 µM (inactive); with EKVX, > 100 µM (inactive); in the assay on HCT-116, > 100 µM (inactive); in the assay with HCT-15 it was greater than 100 µM. In addition, the GI50 with TK-10, with KM12, in the assay on A549 and in the assay with UACC-62 was > 100 µM (inactive) in each case.
For the compound `O=C1/C(=C/c2ccc(Br)cc2)CCC/C1=C\c1ccc(Br)cc1`, the GI50 is 3.95 µM (inactive) with OVCAR-8; 17.2 µM (inactive) in the assay with SF-268; 13.6 µM (inactive) in the assay with HOP-18; 16 µM (inactive) with SF-539; 20.9 µM (inactive) with SK-MEL-2; 7.05 µM (inactive) in the assay with U-251. Also, the GI50 in the assay on HT-29 is 1.88 µM (inactive); in the assay with M14 it was 3.03 µM (inactive); in the assay with DMS-114, 13.2 µM (inactive); with EKVX, 24.2 µM (inactive); in the assay with HCT-116, 1.73 µM (inactive); in the assay with HCT-15 it was 5.13 µM. For the same compound, the GI50 was 27.5 µM (inactive) in the assay with TK-10, 3.4 µM (inactive) in the assay on KM12, 12.4 µM (inactive) with A549 and 15.1 µM (inactive) in the assay on UACC-62.
In the case of `CN1CCC(=O)/C(=C/c2ccccc2)C1`, the GI50 in the assay on OVCAR-8 is 22 µM (inactive); in the assay on SF-268 it was 17.5 µM (inactive); with HOP-18 it was 18.2 µM (inactive); with SF-539, 17.7 µM (inactive); with SK-MEL-2, 20.5 µM (inactive); with U-251 it was 6.44 µM (inactive). For the same compound, the GI50 in the assay with HT-29 was 3.32 µM (inactive); in the assay with M14, 13.2 µM (inactive); in the assay with DMS-114, 9.68 µM (inactive); in the assay on EKVX, 23 µM (inactive); in the assay on HCT-116, 1.78 µM (inactive); in the assay on HCT-15, 7.06 µM. Besides, the GI50 in the assay with TK-10 was 16.1 µM (inactive); with KM12, 2.23 µM (inactive); in the assay with A549, 17.7 µM (inactive); with UACC-62 it was 21.9 µM (inactive).
On to `CCOP1(=O)C=C(C)C(Cl)=C(C)C1` (stereo not given), for which the GI50 with OVCAR-8 is 30 µM (inactive); in the assay with SF-268, 38.9 µM (inactive); in the assay with HOP-18, 68.7 µM (inactive); in the assay with SF-539, 23.1 µM (inactive); in the assay with SK-MEL-2, 8.91 µM (inactive); in the assay with U-251, 24.3 µM (inactive). For the same compound, the GI50 was 24.5 µM (inactive) in the assay on HT-29; 17.1 µM (inactive) with M14; 17.5 µM (inactive) with DMS-114; > 100 µM (inactive) with EKVX; 17.2 µM (inactive) with HCT-116; 23.3 µM with HCT-15. Further, the GI50 was 41.4 µM (inactive) in the assay on TK-10, 15.8 µM (inactive) with KM12, 21.1 µM (inactive) in the assay with A549 and 14.9 µM (inactive) in the assay on UACC-62.
With `O=C(O)c1ccc(C2COc3ccc(Cl)cc3C2)cc1` (stereo not given), the GI50 with OVCAR-8, with SF-268, with HOP-18, with SF-539, with SK-MEL-2 and with U-251 was > 100 µM (inactive) in each case. In addition, the GI50 is > 100 µM (inactive) in the assay with HT-29; > 100 µM (inactive) with M14; > 100 µM (inactive) with DMS-114; > 100 µM (inactive) in the assay on EKVX; > 100 µM (inactive) with HCT-116; greater than 100 µM in the assay on HCT-15. Moreover, the GI50 in the assay on TK-10, with KM12, with A549 and in the assay on UACC-62 was > 100 µM (inactive) throughout.
On to `CC1=C(C(=O)Nc2ccccc2C)C(c2ccc(C3C(C(=O)Nc4ccccc4C)=CNC=C3C(=O)Nc3ccccc3C)cc2)C(C(=O)Nc2ccccc2C)=C(C)N1`, for which the GI50 in the assay on OVCAR-8 is 25.6 µM (inactive); with SF-268, 11.4 µM (inactive); in the assay on HOP-18 it was 37 µM (inactive); with SF-539 it was 14.4 µM (inactive); in the assay with SK-MEL-2 it was 15.7 µM (inactive); in the assay with U-251, 12.2 µM (inactive). Further, the GI50 with HT-29 was 14.4 µM (inactive); in the assay with M14 it was 16.8 µM (inactive); with DMS-114, 23.3 µM (inactive); in the assay on EKVX, 17.9 µM (inactive); in the assay with HCT-116, 19.5 µM (inactive); with HCT-15 it was 16.8 µM. Moreover, the GI50 with TK-10 was 49.7 µM (inactive); in the assay on KM12, 14.1 µM (inactive); in the assay with A549, 40.6 µM (inactive); in the assay with UACC-62, 12.7 µM (inactive).
Consider `CCCCNCCCNCCCNC(=O)c1csc(-c2csc(CCNC(=O)C(NC(=O)C(C)C(O)C(C)NC(=O)C(NC(=O)c3nc(C(CC(N)=O)NCC(N)C(N)=O)nc(N)c3C)C(OC3OC(CO)C(O)C(O)C3OC3OC(CO)C(O)C(OC(N)=O)C3O)c3c[nH]cn3)C(C)O)n2)n1` (stereo not given), for which the GI50 in the assay on OVCAR-8 is 1.92 µM (inactive); in the assay on MCF7 it was 1.86 µM (inactive); in the assay with SF-268 it was 0.253 µM (active); with HOP-18 it was 37.7 µM (inactive); in the assay with PC-3, 23.6 µM (inactive); with SF-539, < 0.01 µM (active). Also, the GI50 with SK-MEL-2 was 2.25 µM (inactive); with U-251, 0.489 µM (active); in the assay on HT-29, 25.1 µM (inactive); in the assay with M14 it was 1.43 µM (inactive); in the assay on DMS-114 it was 0.611 µM (active); in the assay on EKVX it was 14 µM (inactive). Besides, the GI50 was 0.0998 µM (active) in the assay with HCT-116; 24.9 µM in the assay on HCT-15; 17.3 µM (inactive) in the assay on TK-10; 8.67 µM (inactive) in the assay with KM12; 0.386 µM (active) with A549; 30.3 µM (inactive) in the assay with MDA-MB-231. In addition, the GI50 in the assay on UACC-62 was 0.362 µM (active).
